Results reported in patent US12077506B2, “Indane derivatives as hypoxia inducible factor-2(α) inhibitors” (priority 2019, dated 2024).
Where two headings read alike, the source gives them in different places.

Target: HIF-2α (Homo sapiens (Human), UniProt Q99814)
Assay: VEGF ELISA Assay
Assay type: cell-based
Method: The ability of the disclosed compounds to inhibit HIF-2α was measured by determining VEGF expression in 786-O cells. About 7500 786-O cells were seeded into each well of a 96-well, white, clear bottom plate (07-200-566, Fisher Scientific) with 200 ul growth medium. Four hours later, compounds were dispensed into wells by Tecan D300e digital dispenser with starting concentration of 10 uM and ½ log of dilution down to 1 nM as final concentration. Each concentration of treatment was performed in duplicate. About 20 hours later, medium was removed and fresh medium was added, followed by compounds treatment as described above. After 24 hours, cell culture medium was collected to determine VEGF concentration using an ELISA kit (R&D systems, cat #DVE00) following the manufacturer's instruction.
The EC50 was calculated by GraphPad Prism using the dose-response-inhibition (four parameter) equation. The plate with cells was then subjected to CellTiter-Glo luminescence cell viability assay (Promega) to determine the effect of these compounds on cell numbers after the above treatment.

[1] = VEGF expression in 786-O cells, ELISA of culture medium, read-out: EC50

Sequence of HIF-2α (Q99814 whole entry): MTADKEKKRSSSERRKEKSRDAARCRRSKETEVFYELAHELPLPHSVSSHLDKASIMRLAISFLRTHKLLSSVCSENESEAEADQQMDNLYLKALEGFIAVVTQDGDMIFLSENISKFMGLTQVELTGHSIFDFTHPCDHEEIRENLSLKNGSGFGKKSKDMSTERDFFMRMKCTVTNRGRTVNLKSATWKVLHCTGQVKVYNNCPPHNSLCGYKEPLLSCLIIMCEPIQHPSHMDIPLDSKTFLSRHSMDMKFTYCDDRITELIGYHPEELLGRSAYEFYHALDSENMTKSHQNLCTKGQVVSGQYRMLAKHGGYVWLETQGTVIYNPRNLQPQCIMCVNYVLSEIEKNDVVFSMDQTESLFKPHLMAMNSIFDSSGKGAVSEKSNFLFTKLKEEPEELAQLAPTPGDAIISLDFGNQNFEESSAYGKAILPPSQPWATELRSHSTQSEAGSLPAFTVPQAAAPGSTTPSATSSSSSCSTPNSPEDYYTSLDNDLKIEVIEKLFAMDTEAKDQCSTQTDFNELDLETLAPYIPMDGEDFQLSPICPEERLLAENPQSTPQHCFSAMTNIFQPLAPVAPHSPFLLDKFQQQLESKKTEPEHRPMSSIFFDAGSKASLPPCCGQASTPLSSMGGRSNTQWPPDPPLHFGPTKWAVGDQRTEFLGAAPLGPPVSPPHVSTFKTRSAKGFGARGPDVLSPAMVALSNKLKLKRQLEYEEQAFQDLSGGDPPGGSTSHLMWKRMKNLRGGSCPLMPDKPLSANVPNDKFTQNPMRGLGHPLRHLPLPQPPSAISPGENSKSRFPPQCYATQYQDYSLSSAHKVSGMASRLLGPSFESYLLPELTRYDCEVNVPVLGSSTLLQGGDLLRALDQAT

Row | Molecule | EC50 [1] [nM] | EC50 [nM]
1 | 7-(difluoromethyl)-6-(3,5-difluorophenoxy)-2,2,3,3-tetrafluoro-2,3-dihydro-1H-inden-1-ol [I-4] | 4 | 
2 | N#Cc1cc(F)cc(Oc2ccc3c(c2C(F)F)C(O)C(F)(F)C3(F)F)c1 (stereo not shown) [I-1, 3-((4-(difluoromethyl)-1,1,2,2-tetrafluoro-3-hydroxy-2,3-dihydro-1H-inden-5-yl)oxy)-5-fluorobenzonitrile] | 6 | 
3 | CC1(O)c2c(ccc(Oc3cc(F)cc(C#N)c3)c2C(F)F)C(F)(F)C1(F)F (stereo not shown) [I-2, 3-((4-(difluoromethyl)-1,1,2,2-tetrafluoro-3-hydroxy-3-methyl-2,3-dihydro-1H-inden-5-yl)oxy)-5-fluorobenzonitrile] | 770 | 
4 | N#Cc1cc(F)cc(Oc2ccc3c(c2C(F)F)C(N)C(F)(F)C3(F)F)c1 (stereo not shown) [I-3, 3-((3-amino-4-(difluoromethyl)-1,1,2,2-tetrafluoro-2,3-dihydro-1H-inden-5-yl)oxy)-5-fluorobenzonitrile] | 166 | 
5 | Cc1cc(C#N)cc(Oc2ccc3c(c2C(F)F)C(O)C(F)(F)C3(F)F)c1 (stereo not shown) [I-5, 3-((4-(difluoromethyl)-1,1,2,2-tetrafluoro-3-hydroxy-2,3-dihydro-1H-inden-5-yl)oxy)-5-methylbenzonitrile] | 67 | 
6 | N#Cc1cc(Cl)cc(Oc2ccc3c(c2C(F)F)C(O)C(F)(F)C3(F)F)c1 (stereo not shown) [I-6, 3-chloro-5-((4-(difluoromethyl)-1,1,2,2-tetrafluoro-3-hydroxy-2,3-dihydro-1H-inden-5-yl)oxy)benzonitrile] | 27 | 
7 | OC1c2c(ccc(Oc3cc(F)cc(Cl)c3)c2C(F)F)C(F)(F)C1(F)F (stereo not shown) [I-7, 6-(3-chloro-5-fluorophenoxy)-7-(difluoromethyl)-2,2,3,3-tetrafluoro-2,3-dihydro-1H-inden-1-ol] | 8 | 
8 | OC1c2c(ccc(OC3CC(F)(F)C3)c2C(F)F)C(F)(F)C1(F)F (stereo not shown) [I-8, 6-(3,3-difluorocyclobutoxy)-7-(difluoromethyl)-2,2,3,3-tetrafluoro-2,3-dihydro-1H-inden-1-ol] | 105 | 
9 | N#Cc1cncc(Oc2ccc3c(c2C(F)F)C(O)C(F)(F)C3(F)F)c1 (stereo not shown) [I-9, 5-((4-(difluoromethyl)-1,1,2,2-tetrafluoro-3-hydroxy-2,3-dihydro-1H-inden-5-yl)oxy)nicotinonitrile] | 147 | 
10 | OC1c2c(ccc(Oc3cncc(F)c3)c2C(F)F)C(F)(F)C1(F)F (stereo not shown) [I-10, 7-(difluoromethyl)-2,2,3,3-tetrafluoro-6-((5-fluoropyridin-3-yl)oxy)-2,3-dihydro-1H-inden-1-ol] | 54 | 
11 | [2H][C@]1(O)c2c(ccc(Oc3cc(F)cc(C#N)c3)c2C#N)C(F)(F)C1(F)F [I-13a, (S)-5-(3-cyano-5-fluorophenoxy)-1,1,2,2-tetrafluoro-3-hydroxy-2,3-dihydro-1H-indene-4-carbonitrile-3-d] |  | 464
12 | [2H][C@@]1(O)c2c(ccc(Oc3cc(F)cc(C#N)c3)c2C#N)C(F)(F)C1(F)F [I-13b, (R)-5-(3-cyano-5-fluorophenoxy)-1,1,2,2-tetrafluoro-3-hydroxy-2,3-dihydro-1H-indene-4-carbonitrile-3-d] |  | 12
13 | [2H]C1(O)c2c(ccc(Oc3cncc(F)c3)c2C#N)C(F)(F)C1(F)F (stereo not shown) [I-14, 1,1,2,2-tetrafluoro-5-((5-fluoropyridin-3-yl)oxy)-3-hydroxy-2,3-dihydro-1H-indene-4-carbonitrile-3-d] |  | 183
14 | CC1(O)c2c(ccc(Oc3cc(F)cc(C#N)c3)c2C#N)C(F)(F)C1(F)F (stereo not shown) [I-15, 5-(3-cyano-5-fluorophenoxy)-1,1,2,2-tetrafluoro-3-hydroxy-3-methyl-2,3-dihydro-1H-indene-4-carbonitrile] | 287 | 
15 | CC1(O)c2c(ccc(Oc3cc(F)cc(C#N)c3)c2Br)C(F)(F)C1(F)F (stereo not shown) [I-16, 3-((4-bromo-1,1,2,2-tetrafluoro-3-hydroxy-3-methyl-2,3-dihydro-1H-inden-5-yl)oxy)-5-fluorobenzonitrile] | 2070 | 
16 | C=Cc1c(Oc2cc(F)cc(C#N)c2)ccc2c1C(C)(O)C(F)(F)C2(F)F (stereo not shown) [I-17, 3-fluoro-5-((1,1,2,2-tetrafluoro-3-hydroxy-3-methyl-4-vinyl-2,3-dihydro-1H-inden-5-yl)oxy)benzonitrile] | 5770 | 
17 | CCc1c(Oc2cc(F)cc(C#N)c2)ccc2c1C(C)(O)C(F)(F)C2(F)F (stereo not shown) [I-18, 3-((4-ethyl-1,1,2,2-tetrafluoro-3-hydroxy-3-methyl-2,3-dihydro-1H-inden-5-yl)oxy)-5-fluorobenzonitrile] | 2500 | 
18 | N#Cc1cc(F)cc(Oc2ccc3c(c2C(F)F)C(O)C(F)(F)C3F)c1 (stereo not shown) [I-19, 3-((4-(difluoromethyl)-1,2,2-trifluoro-3-hydroxy-2,3-dihydro-1H-inden-5-yl)oxy)-5-fluorobenzonitrile] | 151 | 
19 | N#Cc1cc(F)cc(Oc2ccc3c(c2C(F)F)C(O)C(F)(Cl)C3(F)F)c1 (stereo not shown) [I-20, 3-((2-chloro-4-(difluoromethyl)-1,1,2-trifluoro-3-hydroxy-2,3-dihydro-1H-inden-5-yl)oxy)-5-fluorobenzonitrile] | 20 | 
